From patent publication US10111435B2, “Herbicidal compositions containing N-(1,3,4-oxadiazol-2-yl)-aryl carboxylic acid amides” (BAYER CROPSCIENCE AKTIENGESELLSCHAFT, priority 2013, dated 2018) come the findings set out here.

Holding throughout (assay type): in vivo
In test [1] the test system is Bromus sterilis (BROST). In words: greenhouse post-emergence herbicidal efficacy against BROST. How it is done: (§1) All trials whose results are shown were conducted in a greenhouse by the methodology specified below. The effect of the inventive herbicidal compositions was examined on the following harmful plants 14 and 21 days after application:
(§2) Echinochloa crus-galli (ECHCG), Eleusine indica (ELEIN), Setaria viridis (SETVI), Amaranthus retroflexus (AMARE), Chenopodium album (CHEAL), Kochia scoparia (KCHSC), Solanum nigrum (SOLNI), Avena fatua (AVEFA), Bromus sterilis (BROST), Lolium multiflorum (LOLMU), Phalaris minor (PHAMI), Poa annua (POAAN), Galium aparine (GALAP), Matricaria inodora (MATIN) and Polygonum convolvulus (POLCO).
(§3) The harmful plant seeds were sown in pots (diameter 8 cm) with sandy loam soil and germinated under optimal conditions. The inventive herbicidal compositions or the active ingredients alone were applied post-emergence to the planted pots with a spray volume of 300 L/ha. The trial was conducted in a greenhouse under optimum growth conditions. The herbicidal effects were assessed visually by comparison of untreated and treated plants. The percentages mean: 0%=no effects, 100%=the plants die off completely).
(§4) The abbreviations mean: • a.i.=active ingredient • E^C=expected value according to Colby (E^C=A+B−A×B/100) • Diff: =difference (%) of measured value from expected value (%) (measured value minus expected value)
(§5) Assessment: • measured value E is greater than E^C:->synergism (+ diff.) • measured value E equals E^C:->additive effect • measured value E is smaller than E^C:->antagonism(− diff.)

For test [2], the system named is Phalaris minor (PHAMI). In words: greenhouse post-emergence herbicidal efficacy against PHAMI. As to the method:
as §1, §2, §3, §4, §5

Test [3] deals with Lolium multiflorum (LOLMU). The experiment in a line: greenhouse post-emergence herbicidal efficacy against LOLMU. As to the method:
as §1, §2, §3, §4, §5

The subject of test [4] is Poa annua (POAAN). In words: greenhouse post-emergence herbicidal efficacy against POAAN. As to the method: as §1, §2, §3, §4, §5
In test [5] the test system is Polygonum convolvulus (POLCO). The experiment in a line: greenhouse post-emergence herbicidal efficacy against POLCO. As to the method:
as §1, §2, §3, §4, §5

Test [6] relates to Matricaria inodora (MATIN). In words: greenhouse post-emergence herbicidal efficacy against MATIN. As to the method: as §1, §2, §3, §4, §5
The test system of test [7] is Avena fatua (AVEFA). In words: greenhouse post-emergence herbicidal efficacy against AVEFA. As to the method: as §1, §2, §3, §4, §5
For test [8], the system named is Galium aparine (GALAP). The experiment in a line: greenhouse post-emergence herbicidal efficacy against GALAP. As to the method: as §1, §2, §3, §4, §5
Setting [9] is: 14 days after application, 80 g of a.i./ha.
Where [10] appears, read: 21 days after application, g of a.i./ha: A2-1 50, fluroxypyr 80.
Setting [11] is: 21 days after application, g of a.i./ha: A2-1 12.5, fluroxypyr 80.
[12] abbreviates: 14 days after application, 20 g of a.i./ha.
Setting [13] is: 21 days after application, g of a.i./ha: A2-1 12.5, fluroxypyr 20.
[14] abbreviates: 21 days after application, g of a.i./ha: A2-1 50, fluroxypyr 20.
[15] abbreviates: 14 days after application, 320 g of a.i./ha.
[16] abbreviates: 21 days after application, g of a.i./ha: A1-36 2.5, flurtamone 80.
Where [17] appears, read: 21 days after application, g of a.i./ha: A1-36 2.5, flurtamone 320.
Setting [18] is: 21 days after application, g of a.i./ha: A1-36 10, flurtamone 80.
Where [19] appears, read: 21 days after application, g of a.i./ha: A1-36 10, flurtamone 320.
Setting [20] is: 21 days after application, g of a.i./ha: A1-13 10, indaziflam 10.
[21] abbreviates: 14 days after application, g of a.i./ha: A1-13 10, indaziflam 40.
The mark [22] stands for this setting: 21 days after application, g of a.i./ha: A1-13 2.5, indaziflam 40.
The mark [23] stands for this setting: 21 days after application, g of a.i./ha: A1-13 10, indaziflam 40.
Where [24] appears, read: 14 days after application, g of a.i./ha: A1-13 2.5, indaziflam 10.
[25] abbreviates: 14 days after application, g of a.i./ha: A1-60 2.5, isoproturon 400.
The mark [26] stands for this setting: 14 days after application, g of a.i./ha: A1-60 2.5, isoproturon 1600.
The mark [27] stands for this setting: 14 days after application, g of a.i./ha: A1-60 10, isoproturon 400.
The mark [28] stands for this setting: 14 days after application, g of a.i./ha: A1-60 10, isoproturon 1600.
Where [29] appears, read: 21 days after application, g of a.i./ha: A1-60 10, isoproturon 400.
Where [30] appears, read: 21 days after application, g of a.i./ha: A1-60 10, isoproturon 1600.
Setting [31] is: 21 days after application, g of a.i./ha: A1-60 2.5, isoproturon 400.
[32] abbreviates: 14 days after application, 25 g of a.i./ha.
Setting [33] is: 21 days after application, g of a.i./ha: A1-14 10, pyrasulfotole 100.
Where [34] appears, read: 14 days after application, 100 g of a.i./ha.
Where [35] appears, read: 21 days after application, g of a.i./ha: A1-14 2.5, pyrasulfotole 25.
Setting [36] is: 21 days after application, g of a.i./ha: A1-14 2.5, pyrasulfotole 100.
Where [37] appears, read: 21 days after application, g of a.i./ha: A1-14 10, pyrasulfotole 25.
The mark [38] stands for this setting: 21 days after application, g of a.i./ha: A1-7 10, saflufenacil 8.
[39] abbreviates: 14 days after application, g of a.i./ha: A1-7 2.5, saflufenacil 2.
Where [40] appears, read: 14 days after application, g of a.i./ha: A1-7 2.5, saflufenacil 8.

For `Nc1c(Cl)c(F)nc(OCC(=O)O)c1Cl` [fluroxypyr], the Efficacy is 0% in test [1] (setting [9]); 0% in test [1] (setting [10]); 15% in test [2] (setting [9]); 0% in test [2] (setting [11]); 0% in test [2] (setting [10]); 0% in test [3] (setting [9]). The Efficacy is recorded as 0% in test [3] (setting [10]); 0% in test [4] (setting [12]); 0% in test [4] (setting [13]); 10% in test [4] (setting [11]); 70% in test [5] (setting [12]); 80% in test [5] (setting [13]). Further, the Efficacy amounted to 80% in test [5] (setting [14]); 20% in test [6] (setting [13]); 50% in test [6] (setting [11]); 20% in test [6] (setting [14]); 50% in test [6] (setting [10]); 0% in test [7] (setting [9]). Besides, the Efficacy in test [7] (setting [11]) and in test [7] (setting [10]) was 0% each time.

On to `CNC1=C(c2cccc(C(F)(F)F)c2)C(=O)C(c2ccccc2)O1` (stereo not shown) [flurtamone], for which the Efficacy was found to be 0% in test [1] (setting [9]); 10% in test [1] (setting [15]); 0% in test [1] (setting [16]); 10% in test [1] (setting [17]); 40% in test [2] (setting [9]); 50% in test [2] (setting [15]). The Efficacy amounted to 40% in test [2] (setting [18]); 30% in test [3] (setting [9]); 20% in test [3] (setting [18]); 40% in test [8] (setting [9]); 80% in test [8] (setting [15]); 0% in test [8] (setting [16]). Moreover, the Efficacy in test [8] (setting [18]) worked out at 0%; in test [8] (setting [19]), 70%; in test [5] (setting [9]), 50%; in test [5] (setting [15]), 30%; in test [5] (setting [18]), 0%; in test [5] (setting [19]) it was 30%. Further, the Efficacy in test [6] (setting [9]) was 50%; in test [6] (setting [15]), 50%; in test [6] (setting [16]) it was 25%; in test [6] (setting [17]), 30%; in test [6] (setting [18]), 25%; in test [6] (setting [19]), 30%. The Efficacy in test [7] (setting [9]) is listed as 0%; in test [7] (setting [15]), 15%; in test [7] (setting [16]) it was 0%; in test [7] (setting [17]), 0%; in test [7] (setting [18]) it was 0%; in test [7] (setting [19]), 0%.

`Cc1ccc2c(c1)[C@H](Nc1nc(N)nc(C(C)F)n1)[C@@H](C)C2` (stereo partly shown) [indaziflam]: the Efficacy turned out to be 0% in test [1] (setting [20]); 10% in test [2] (14 days after application, g of a.i./ha: A1-13 2.5, indaziflam 40); 10% in test [2] (setting [21]); 10% in test [2] (setting [22]); 10% in test [2] (setting [23]); 0% in test [3] (setting [20]). Further, the Efficacy in test [8] (setting [24]) was 50%; in test [8] (setting [21]), 60%; in test [6] (setting [24]) it was 30%; in test [6] (14 days after application, g of a.i./ha: A1-13 10, indaziflam 10), 30%; in test [7] (setting [22]), 10%; in test [7] (setting [23]), 10%. Also, the “Efficacy against GALAP” value in test [8] (21 days after application, dosage 40 g of a.i./ha) is on record as 35%. Besides, the “Efficacy against POAAN” value in test [4] (21 days after application, dosage 10 g of a.i./ha) is 0%.

In the case of `CC(C)c1ccc(NC(=O)N(C)C)cc1` [isoproturon], the Efficacy in test [1] (setting [25]) is given as 0%; in test [1] (setting [26]) it was 5%; in test [1] (setting [27]) it was 0%; in test [1] (setting [28]), 5%; in test [1] (setting [29]), 0%; in test [1] (setting [30]), 0%. In addition, the Efficacy in test [2] (setting [25]) worked out at 35%; in test [2] (setting [27]) it was 35%; in test [2] (setting [28]), 80%; in test [2] (setting [31]) it was 15%; in test [2] (setting [29]) it was 15%; in test [3] (setting [25]) it was 0%. In addition, the Efficacy in test [3] (setting [26]) is on record as 15%; in test [3] (setting [27]), 0%; in test [3] (setting [28]), 15%; in test [3] (setting [29]) it was 0%; in test [3] (setting [30]), 0%; in test [8] (setting [25]), 10%. Further, the Efficacy in test [8] (setting [26]) was found to be 20%; in test [8] (setting [27]), 10%; in test [8] (setting [28]), 20%; in test [8] (setting [31]), 0%; in test [8] (21 days after application, g of a.i./ha: A1-60 2.5, isoproturon 1600), 0%; in test [8] (setting [29]), 0%. Besides, the Efficacy in test [8] (setting [30]) is 0%; in test [4] (setting [26]), 80%; in test [4] (setting [27]), 60%; in test [4] (setting [28]), 80%; in test [4] (setting [29]), 30%; in test [6] (setting [31]), 90%. The Efficacy is listed as 90% in test [6] (setting [29]); 0% in test [7] (setting [25]); 0% in test [7] (setting [27]); 35% in test [7] (setting [28]); 0% in test [7] (setting [31]); 0% in test [7] (setting [29]). Further, the Efficacy in test [7] (setting [30]) worked out at 15%.

On to `Cc1nn(C)c(O)c1C(=O)c1ccc(C(F)(F)F)cc1S(C)(=O)=O` [pyrasulfotole], for which the Efficacy in test [1] (setting [32]) was determined as 0%; in test [1] (setting [33]), 0%; in test [2] (setting [32]), 0%; in test [2] (setting [34]), 5%; in test [2] (setting [35]) it was 0%; in test [2] (setting [36]), 0%. The Efficacy in test [3] (setting [32]) is 0%; in test [3] (setting [34]), 0%; in test [8] (setting [35]), 40%; in test [8] (setting [37]) it was 40%; in test [4] (setting [32]), 0%; in test [4] (setting [34]), 0%. For the same compound, the Efficacy in test [4] (setting [35]) is reported as 0%; in test [4] (setting [36]) it was 0%; in test [5] (setting [32]) it was 50%; in test [5] (setting [34]) it was 60%; in test [5] (setting [35]) it was 0%; in test [5] (setting [36]) it was 30%. For the same compound, the Efficacy in test [5] (setting [37]) is reported as 0%; in test [5] (setting [33]), 30%; in test [6] (setting [32]) it was 0%; in test [6] (setting [34]), 15%; in test [6] (setting [36]), 3%.

For the compound `CC(C)N(C)S(=O)(=O)NC(=O)c1cc(-n2c(=O)cc(C(F)(F)F)n(C)c2=O)c(F)cc1Cl` [saflufenacil], the Efficacy in test [1] (setting [38]) was found to be 5%; in test [3] (setting [39]) it was 0%; in test [3] (setting [40]), 10%; in test [5] (setting [39]), 0%; in test [5] (setting [40]), 10%; in test [5] (14 days after application, g of a.i./ha: A1-7 10, saflufenacil 2), 0%. Also, the Efficacy in test [5] (14 days after application, g of a.i./ha: A1-7 10, saflufenacil 8) came to 10%; in test [5] (21 days after application, g of a.i./ha: A1-7 2.5, saflufenacil 2), 0%; in test [5] (21 days after application, g of a.i./ha: A1-7 2.5, saflufenacil 8) it was 0%; in test [5] (21 days after application, g of a.i./ha: A1-7 10, saflufenacil 2), 0%; in test [5] (setting [38]), 0%; in test [7] (setting [39]), 0%.
